Assay results from ChEMBL document CHEMBL1201862, “PubChem BioAssay data set” (2004).
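These data come from cells grown in 96-well plates and exposed to compound for 48 hours at five concentrations. GI50 marks 50% less growth.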 Calls of active or inactive are those of the source. Cut-off read from the data, not from the text of the source: active = GI50 up to about 1.1 µM and inactive = higher.

Tests used:
Experiment in all cases: NCI anticancer screen, dose series, 48 h
EKVX = test system: EKVX
MDA-N = test system: MDA-N
NCI-H226 = test system: NCI-H226
SF-295 = test system: SF-295
SNB-75 = test system: SNB-75
A549 = test system: A549
MDA-MB-231 = test system: MDA-MB-231
CCRF-CEM = test system: CCRF-CEM
SNB-19 = test system: SNB-19
RPMI-8226 = test system: RPMI-8226
T47D = test system: T47D
NCI-H460 = test system: NCI-H460
MDA-MB-435 = test system: MDA-MB-435
M14 = test system: M14
Hs-578T = test system: Hs-578T
DU-145 = test system: DU-145
NCI/ADR-RES = test system: NCI/ADR-RES
786-0 = test system: 786-0
HOP-62 = test system: HOP-62
BT-549 = test system: BT-549

| SMILES | GI50 (EKVX) | GI50 (MDA-N) | GI50 (NCI-H226) | GI50 (SF-295) | GI50 (SNB-75) | GI50 (A549) | GI50 (MDA-MB-231) | GI50 (CCRF-CEM) | GI50 (SNB-19) | GI50 (RPMI-8226) | GI50 (T47D) | GI50 (NCI-H460) | GI50 (MDA-MB-435) | GI50 (M14) | GI50 (Hs-578T) | GI50 (DU-145) | GI50 (NCI/ADR-RES) | GI50 (786-0) | GI50 (HOP-62) | GI50 (BT-549) |
| --- | --- | --- | --- | --- | --- | --- | --- | --- | --- | --- | --- | --- | --- | --- | --- | --- | --- | --- | --- | --- |
| CCN(CC)CC(C)(C)C(=O)/C=C/c1ccc(/C=C/C(=O)C(C)(C)CN(CC)CC)cc1 | 1.63 µM (inactive) | 0.44 µM (active) | 2.28 µM (inactive) | 1.22 µM (inactive) | 1.61 µM (inactive) | 1.97 µM (inactive) | 0.206 µM (active) | 0.0646 µM (active) | 1.53 µM (inactive) | 0.157 µM (active) | 0.587 µM (active) | 0.427 µM (active) | 0.897 µM (active) | 1.03 µM (active) | 0.462 µM (active) | 2.01 µM (inactive) | 1.09 µM (active) | 0.182 µM (active) | 1.95 µM (inactive) |  |
| NCCSC1(O)C(=O)c2ccccc2-c2ccccc21 (stereo unspecified) | 1.66 µM (inactive) |  | 1.33 µM (inactive) | < 0.01 µM (active) | 0.553 µM (active) | 0.719 µM (active) | 0.483 µM (active) | 0.158 µM (active) | 1.53 µM (inactive) | 0.0348 µM (active) | 2.1 µM (inactive) | 1.78 µM (inactive) | < 0.01 µM (active) | 1.02 µM (active) | 1.41 µM (inactive) | 1.06 µM (active) | 0.272 µM (active) | 1.63 µM (inactive) | 1.53 µM (inactive) |  |
| Cc1ccc(/C=C/C(=N/NC(=O)N/N=C(/C=C/c2ccc(C)cc2)C(C)C)C(C)C)cc1 | > 10 µM (inactive) | > 10 µM (inactive) | > 10 µM (inactive) | > 10 µM (inactive) |  | > 10 µM (inactive) | > 10 µM (inactive) | > 10 µM (inactive) | > 10 µM (inactive) | 3.11 µM (inactive) |  | > 10 µM (inactive) | > 10 µM (inactive) | > 10 µM (inactive) |  | > 10 µM (inactive) | > 10 µM (inactive) | > 10 µM (inactive) | > 10 µM (inactive) | > 10 µM (inactive) |
| CNC(=O)CCNC(=O)CCC(=O)OC |  | > 100 µM (inactive) |  | > 100 µM (inactive) |  | > 100 µM (inactive) | > 100 µM (inactive) |  | > 100 µM (inactive) |  | > 100 µM (inactive) | > 100 µM (inactive) | > 100 µM (inactive) | > 100 µM (inactive) |  | > 100 µM (inactive) | > 100 µM (inactive) | > 100 µM (inactive) | > 100 µM (inactive) |  |
| CC1=C(C(=O)Nc2ccccc2)C(c2ccc(N(C)C)cc2)C(C(=O)Nc2ccccc2)=C(C)N1 | 62.8 µM (inactive) | 1.75 µM (inactive) | > 89.5 µM (inactive) | 3.54 µM (inactive) | 35.6 µM (inactive) | 3.31 µM (inactive) | 29.1 µM (inactive) | 3.94 µM (inactive) | 64.3 µM (inactive) | 3.13 µM (inactive) | 3.33 µM (inactive) | 1.43 µM (inactive) | 0.804 µM (active) | 1.5 µM (inactive) | > 100 µM (inactive) | 3.17 µM (inactive) | > 100 µM (inactive) | 29.6 µM (inactive) | 5 µM (inactive) |  |
| O=C(O)Cn1nnc2c(=O)[nH][nH]c(=O)c21 | > 100 µM (inactive) | > 100 µM (inactive) |  | > 100 µM (inactive) |  | > 100 µM (inactive) | > 100 µM (inactive) | > 100 µM (inactive) | > 100 µM (inactive) | > 100 µM (inactive) |  | > 100 µM (inactive) | > 100 µM (inactive) | > 100 µM (inactive) |  | > 100 µM (inactive) | > 100 µM (inactive) | > 100 µM (inactive) | > 100 µM (inactive) | > 100 µM (inactive) |
| N=C1C=C(N)C(=O)c2[nH]c(=O)ccc21 | 1.92 µM (inactive) | 1.01 µM (active) | 2.53 µM (inactive) | 17.3 µM (inactive) |  | 2.48 µM (inactive) | 1.91 µM (inactive) | 2.36 µM (inactive) | 2.02 µM (inactive) | 2.15 µM (inactive) | 1.76 µM (inactive) | 2.92 µM (inactive) | 1.09 µM (active) | 14.8 µM (inactive) | 4.42 µM (inactive) | 8.13 µM (inactive) | 2.27 µM (inactive) | 1.91 µM (inactive) | 1.92 µM (inactive) |  |
| CN(C)C(n1cc2c(c1)-c1ccc(Cl)cc1C(c1ccccc1F)=NC2)n1cc2c(c1)-c1ccc(Cl)cc1C(c1ccccc1F)=NC2 | > 100 µM (inactive) | 18.4 µM (inactive) | 13 µM (inactive) | 26.3 µM (inactive) | 24.7 µM (inactive) | 52.4 µM (inactive) | > 100 µM (inactive) | > 100 µM (inactive) | > 100 µM (inactive) | > 100 µM (inactive) | 38.4 µM (inactive) | 51.3 µM (inactive) | > 100 µM (inactive) | 93.1 µM (inactive) | > 100 µM (inactive) | 54 µM (inactive) | > 100 µM (inactive) | > 100 µM (inactive) | > 100 µM (inactive) |  |
| COC(=O)[C@H]1ON2O[C@@H](O[C@H]3CCCC[C@@H]3C(C)(C)c3ccccc3)C[C@@H]3CC[C@H]1[C@@]32C | > 100 µM (inactive) | > 100 µM (inactive) | > 100 µM (inactive) | > 100 µM (inactive) | > 100 µM (inactive) | > 100 µM (inactive) |  | > 100 µM (inactive) |  | > 100 µM (inactive) | > 100 µM (inactive) | > 100 µM (inactive) | > 100 µM (inactive) | > 100 µM (inactive) | > 100 µM (inactive) | > 100 µM (inactive) | > 100 µM (inactive) | > 100 µM (inactive) | > 100 µM (inactive) |  |
| CN1CCC(O)(OC(=O)C(c2ccccc2)C2(O)CCCC2)CC1 (stereo unspecified) | > 100 µM (inactive) | > 100 µM (inactive) | > 100 µM (inactive) | > 100 µM (inactive) | > 100 µM (inactive) | > 100 µM (inactive) | > 100 µM (inactive) | > 100 µM (inactive) | > 100 µM (inactive) | > 100 µM (inactive) | > 100 µM (inactive) | > 100 µM (inactive) | > 100 µM (inactive) | > 100 µM (inactive) | > 100 µM (inactive) | > 100 µM (inactive) | > 100 µM (inactive) | > 100 µM (inactive) | > 100 µM (inactive) |  |
| O=C(/C=C(\C(=O)c1cccs1)c1cccs1)c1ccc(C(=O)/C=C(\C(=O)c2cccs2)c2cccs2)cc1 | > 100 µM (inactive) |  | > 100 µM (inactive) | > 100 µM (inactive) | > 100 µM (inactive) | > 100 µM (inactive) | > 100 µM (inactive) | > 100 µM (inactive) | > 100 µM (inactive) | > 100 µM (inactive) | > 100 µM (inactive) | > 100 µM (inactive) | > 100 µM (inactive) | > 100 µM (inactive) | > 100 µM (inactive) | > 100 µM (inactive) | > 100 µM (inactive) | > 100 µM (inactive) | > 100 µM (inactive) |  |
| O=C(NC(Nc1ccc(F)c(Cl)c1)(C(F)(F)F)C(F)(F)F)C(C(F)(F)F)C(F)(F)F | 68.4 µM (inactive) | 28.5 µM (inactive) | 24.1 µM (inactive) | 36.5 µM (inactive) |  | 27.2 µM (inactive) | 28.3 µM (inactive) | 22.1 µM (inactive) | 30.9 µM (inactive) | 20 µM (inactive) | 44.3 µM (inactive) | 36.1 µM (inactive) | 26.5 µM (inactive) | 21.9 µM (inactive) | 17.6 µM (inactive) | 27.5 µM (inactive) | 19.8 µM (inactive) | 30.5 µM (inactive) | > 100 µM (inactive) |  |
| O=C(Cc1ccccc1)NN1C(=O)C(Cl)C1c1cccc(O)c1 (stereo unspecified) | 18.6 µM (inactive) |  | 21.7 µM (inactive) | 16.7 µM (inactive) | 26.5 µM (inactive) | 25.1 µM (inactive) |  | 3.06 µM (inactive) | 42.7 µM (inactive) | 2.84 µM (inactive) |  | 15.3 µM (inactive) |  | 15.3 µM (inactive) |  |  |  | 13.2 µM (inactive) | 27.2 µM (inactive) |  |
| CC(C)CC(NC(=O)C(CSc1ccc([N+](=O)[O-])cc1)Cc1ccccc1)C(=O)Nc1ccccc1 (stereo unspecified) | > 100 µM (inactive) | > 100 µM (inactive) |  | 39.1 µM (inactive) | 26.4 µM (inactive) | 93.5 µM (inactive) | > 100 µM (inactive) | 33.1 µM (inactive) | 45.5 µM (inactive) | > 100 µM (inactive) |  | 49.8 µM (inactive) | > 100 µM (inactive) | 99.8 µM (inactive) |  | 89.3 µM (inactive) | 30.2 µM (inactive) | 44.7 µM (inactive) |  | 12.3 µM (inactive) |
| OC1[C@H]([C@H]2CCCC[C@@H]2O)CCC[C@@H]1[C@@H]1CCCC[C@H]1O (stereo partly specified) | > 100 µM (inactive) |  | > 100 µM (inactive) | > 100 µM (inactive) | > 100 µM (inactive) | > 100 µM (inactive) |  | > 100 µM (inactive) | > 100 µM (inactive) | > 100 µM (inactive) |  | > 100 µM (inactive) |  | > 100 µM (inactive) |  |  |  | > 100 µM (inactive) | > 100 µM (inactive) |  |
| C=C1C(=O)O[C@@H]2[C@H]1CC[C@H](C)[C@]1(O)CCC(=O)[C@@]21C [CORONOPILIN] | > 10 µM (inactive) | > 10 µM (inactive) | > 10 µM (inactive) | > 10 µM (inactive) | > 10 µM (inactive) | > 10 µM (inactive) |  | 4.69 µM (inactive) | > 10 µM (inactive) | > 10 µM (inactive) | > 10 µM (inactive) |  | > 10 µM (inactive) |  | > 10 µM (inactive) |  | > 10 µM (inactive) | > 10 µM (inactive) | > 10 µM (inactive) |  |
